From publication PMC3853718 (Journal of Translational Medicine, 2013)
Where two headings read alike, the source gives them in different places. Marks after values point to notes of the source that are not given here.

Assays:
[1] = system: Rb protein phosphorylation; experiment: Immunohistochemistry for phospho-Rb in skin biopsies; type: in vivo, human
Procedure: . The phosphorylation status of the Rb protein in the proliferative layer of skin and in the proliferating cells at the base of hair follicles was determined by IHC utilizing a rabbit anti-phospho-Rb antibody diluted to 0.83 μg/mL or 0.67 μg/mL. Immunohistochemistry staining was scored 0 (no staining relative to background), 1+ (weak staining), 2+ (moderate staining), or 3+ (strong staining); H-score was calculated as a measure of overall immunoreactivity in a given sample, using the following formula: H-score = (% of cells with 3+) × 3 + (% of cells with 2+) × 2 + (% of cells with 1+) × 1. Subjects were to be categorized as responders if no degree of staining was detected with the anti-phospho-Rb antibody.

[2] = Plasma pharmacokinetics after 2-hour IV infusion (LC-MS/MS); settings: for AUC(0-inf): read-out: AUC(I) Mean; for AUC(0-t): read-out: AUC(tf) Mean

Compound: CCc1cnn2c(NCc3ccc[n+]([O-])c3)cc(N3CCCC[C@H]3CCO)nc12 [dinaciclib]
- mean phospho-Rb H score following treatment ([1]; RP2D 12 mg/m^2, 11 subjects, skin biopsy 4 hours after treatment, before treatment 18.55): 17.64
- response based on phospho-Rb staining ([1]; responder = complete loss of phospho-Rb staining): no subjects were deemed to have achieved a response
- CL dependence on dose ([2]; 0.33 to 14 mg/m^2): dose independent
- time at which Cmax was observed after the initiation of the infusion ([2]; 2-hour IV administration): approximately 2 hours
- CL Mean ([2]; Day 1, 0.33 mg/m^2, N 1): 12.4 L/hr/m^2
- Vd Mean ([2]; Day 1, 0.33 mg/m^2, N 1): 35.9 L/m^2
- t½ Mean ([2]; Day 1, 0.33 mg/m^2, N 1): 2.01 h
- CL Mean ([2]; Day 1, 0.66 mg/m^2, N 1): 18.5 L/hr/m^2
- Cmax Mean ([2]; Day 1, 0.66 mg/m^2, N 1): 18.6 ng/mL
- Tmax Median ([2]; Day 1, 0.66 mg/m^2, N 1): 2 h
- Vd Mean ([2]; Day 1, 0.66 mg/m^2, N 1): 39.4 L/m^2
- t½ Mean ([2]; Day 1, 0.66 mg/m^2, N 1): 1.48 h
- Cmax Mean ([2]; Day 1, 1.32 mg/m^2, N 1): 63.8 ng/mL
- Tmax Median ([2]; Day 1, 1.32 mg/m^2, N 1): 2 h
- Cmax Mean ([2]; Day 1, 2.59 mg/m^2, N 3 (n=1)): 100^e ng/mL
- Tmax Median ([2]; Day 1, 2.59 mg/m^2, N 3 (n=1)): 1^e hr
- CL Mean ([2]; Day 1, 2.59 mg/m^2, N 3 (n=2)): 12.8^d L/hr/m^2
- Vd Mean ([2]; Day 1, 2.59 mg/m^2, N 3 (n=2)): 61.4^d L/m^2
- t½ Mean ([2]; Day 1, 2.59 mg/m^2, N 3 (n=2)): 3.28^d hr
- CL Mean ([2]; Day 1, 3.63 mg/m^2, N 7 (n=6)): 11.2^h L/hr/m^2
- Cmax Mean ([2]; Day 1, 3.63 mg/m^2, N 7 (n=6)): 210^i ng/mL
- Tmax Median ([2]; Day 1, 3.63 mg/m^2, N 7 (n=6)): 1^i hr
- Vd Mean ([2]; Day 1, 3.63 mg/m^2, N 7 (n=6)): 40.2^h L/m^2
- t½ Mean ([2]; Day 1, 3.63 mg/m^2, N 7 (n=6)): 2.9^h hr
- CL Mean ([2]; Day 1, 5.08 mg/m^2, N 3): 15.9 L/hr/m^2
- Vd Mean ([2]; Day 1, 5.08 mg/m^2, N 3): 72.7 L/m^2
- CL Mean ([2]; Day 1, 7.11 mg/m^2, N 7): 14.1 L/hr/m^2
- Vd Mean ([2]; Day 1, 7.11 mg/m^2, N 7): 61.7 L/m^2
- CL Mean ([2]; Day 1, 10 mg/m^2, N 3): 16.1 L/hr/m^2
- Vd Mean ([2]; Day 1, 10 mg/m^2, N 3): 68.5 L/m^2
- CL Mean ([2]; Day 1, 12 mg/m^2, N 11): 12.1 L/hr/m^2
- Vd Mean ([2]; Day 1, 12 mg/m^2, N 11): 55.4 L/m^2
- CL Mean ([2]; Day 1, 14 mg/m^2, N 5): 9.24 L/hr/m^2
- Vd Mean ([2]; Day 1, 14 mg/m^2, N 5): 39.8 L/m^2
- CL Mean ([2]; Day 15, 0.33 mg/m^2, N 1): 7.67 L/hr/m^2
- Vd Mean ([2]; Day 15, 0.33 mg/m^2, N 1): 51 L/m^2
- t½ Mean ([2]; Day 15, 0.33 mg/m^2, N 1): 4.61 h
- CL Mean ([2]; Day 15, 0.66 mg/m^2, N 1): 23.9 L/hr/m^2
- Vd Mean ([2]; Day 15, 0.66 mg/m^2, N 1): 57.6 L/m^2
- CL Mean ([2]; Day 15, 1.32 mg/m^2, N 1): 9.83 L/hr/m^2
- Vd Mean ([2]; Day 15, 1.32 mg/m^2, N 1): 48 L/m^2
- CL Mean ([2]; Day 15, 2.59 mg/m^2, N 3 (n=2)): 15.6^m L/hr/m^2
- Vd Mean ([2]; Day 15, 2.59 mg/m^2, N 3 (n=2)): 80.7^m L/m^2
- CL Mean ([2]; Day 15, 3.63 mg/m^2, N 6 (n=3)): 12.5° L/hr/m^2
- Vd Mean ([2]; Day 15, 3.63 mg/m^2, N 6 (n=3)): 71.6° L/m^2
- CL Mean ([2]; Day 15, 5.08 mg/m^2, N 2): 14.6 L/hr/m^2
- Cmax Mean ([2]; Day 15, 5.08 mg/m^2, N 2): 147 ng/mL
- Tmax Median ([2]; Day 15, 5.08 mg/m^2, N 2): 2 h
- Vd Mean ([2]; Day 15, 5.08 mg/m^2, N 2): 66.2 L/m^2
- t½ Mean ([2]; Day 15, 5.08 mg/m^2, N 2): 3.17 h
- Cmax Mean ([2]; Day 15, 7.11 mg/m^2, N 7): 306 ng/mL
- Tmax Median ([2]; Day 15, 7.11 mg/m^2, N 7): 1 h
- CL Mean ([2]; Day 15, 7.11 mg/m^2, N 7 (n=6)): 12.4^q L/hr/m^2
- Vd Mean ([2]; Day 15, 7.11 mg/m^2, N 7 (n=6)): 49.9^q L/m^2
- t½ Mean ([2]; Day 15, 7.11 mg/m^2, N 7 (n=6)): 2.71^q hr
- CL Mean ([2]; Day 15, 10 mg/m^2, N 3): 15.2 L/hr/m^2
- Cmax Mean ([2]; Day 15, 10 mg/m^2, N 3): 321 ng/mL
- Tmax Median ([2]; Day 15, 10 mg/m^2, N 3): 2 h
- Vd Mean ([2]; Day 15, 10 mg/m^2, N 3): 90.6 L/m^2
- t½ Mean ([2]; Day 15, 10 mg/m^2, N 3): 4.14 h
- CL Mean ([2]; Day 15, 12 mg/m^2, N 10): 11.5 L/hr/m^2
- Cmax Mean ([2]; Day 15, 12 mg/m^2, N 10): 526 ng/mL
- Tmax Median ([2]; Day 15, 12 mg/m^2, N 10): 2 h
- Vd Mean ([2]; Day 15, 12 mg/m^2, N 10): 49.3 L/m^2
- t½ Mean ([2]; Day 15, 12 mg/m^2, N 10): 3.16 h
- CL Mean ([2]; Day 15, 14 mg/m^2, N 4): 13.9 L/hr/m^2
- Cmax Mean ([2]; Day 15, 14 mg/m^2, N 4): 568 ng/mL
- Tmax Median ([2]; Day 15, 14 mg/m^2, N 4): 2 h
- Vd Mean ([2]; Day 15, 14 mg/m^2, N 4): 70.2 L/m^2
- t½ Mean ([2]; Day 15, 14 mg/m^2, N 4): 3.43 h
- accumulation in plasma ([2]; days 1, 8, 15 of cycle 1 and day 1 of cycle 2): does not accumulate in plasma
- AUC(0-inf) ([2]; Day 1, 0.33 mg/m^2, N 1): 26.7 ng·h/mL
- AUC(0-inf) ([2]; Day 1, 0.66 mg/m^2, N 1): 35.7 ng·h/mL
- AUC(0-inf) ([2]; Day 1, 2.59 mg/m^2, N 3 (n=2)): 214 ng·h/mL
- AUC(0-inf) ([2]; Day 1, 3.63 mg/m^2, N 7 (n=6)): 458 ng·h/mL
- AUC(0-inf) ([2]; Day 15, 5.08 mg/m^2, N 2): 354 ng·h/mL
- AUC(0-inf) ([2]; Day 15, 7.11 mg/m^2, N 7 (n=6)): 686 ng·h/mL
- AUC(0-inf) ([2]; Day 15, 10 mg/m^2, N 3): 722 ng·h/mL
- AUC(0-inf) ([2]; Day 15, 12 mg/m^2, N 10): 1270 ng·h/mL
- AUC(0-inf) ([2]; Day 15, 14 mg/m^2, N 4): 1180 ng·h/mL
- AUC(0-t) ([2]; Day 1, 0.33 mg/m^2, N 1): 26.1 ng·h/mL
- AUC(0-t) ([2]; Day 1, 0.66 mg/m^2, N 1): 35.3 ng·h/mL
- AUC(0-t) ([2]; Day 1, 1.32 mg/m^2, N 1): 112 ng·h/mL
- AUC(0-t) ([2]; Day 1, 2.59 mg/m^2, N 3): 809 ng·h/mL
- AUC(0-t) ([2]; Day 1, 3.63 mg/m^2, N 7): 465 ng·h/mL
- AUC(0-t) ([2]; Day 1, 10 mg/m^2, N 3): 681 ng·h/mL
- AUC(0-t) ([2]; Day 15, 0.66 mg/m^2, N 1): 27.2 ng·h/mL
- AUC(0-t) ([2]; Day 15, 2.59 mg/m^2, N 3): 739 ng·h/mL
- AUC(0-t) ([2]; Day 15, 3.63 mg/m^2, N 6): 401 ng·h/mL
- AUC(0-t) ([2]; Day 15, 7.11 mg/m^2, N 7): 710 ng·h/mL
- AUC(0-t) ([2]; Day 15, 10 mg/m^2, N 3): 704 ng·h/mL
- AUC(0-t) ([2]; Day 15, 12 mg/m^2, N 10): 1270 ng·h/mL
